Reference: patent publication US20250042920A1 (OCEAN UNIVERSITY OF CHINA, priority 2021, published 2025)

Experiments:
MNK2 = MNK2 (Homo sapiens, UniProt Q9HBH9); assay: MNK2 kinase inhibition assay (LANCE Ultra kinase activity assay, PerkinElmer); format: biochemical; settings: 100 μM ATP; for IC50: five concentrations 10000-1 nM; for inhibition at 1 µM: inhibition rate at 1000 nM compound, 60 min, 25° C., read-out: Inhibitory activity(1 μM) MNK2
Method: (§1) MNK1 and MNK2 kinase inhibition assays were performed using LANCE Ultra kinase activity assay developed by PerkinElmer. […] The test steps are as follows: At 25° C., 1.00 ng MNK1 or 0.05 ng MNK2 was prepared with different concentrations (10000, 1000, 100, 10, 1 nM) of the tested compound to form a total volume of 10 μL reaction mixture (MNK1: 12.5 nM CREB, 450 μM ATP, 2 mM DTT, 1× buffer; MNK2: 12.5 nM CREB, 100 μM ATP, 2 mM DTT, 1×buffer), and incubation for 60 min. The reaction was terminated by adding 5 μL EDTA/Detection buffer and 5 μL Eu-CREB/Detection buffer. The ratio of HTRF signals at 615 nm and 665 nm was detected after 60 min of incubation. The inhibition rate was calculated by measuring the compounds at 1000 nM.
(§2) Then five different concentrations (10000, 1000, 100, 10, 1 nM) of the tested compounds were measured, and the IC50 value was calculated according to the inhibition rate fitting curve.

MNK1 = MNK1 (Homo sapiens, UniProt Q9BUB5); assay: MNK1 kinase inhibition assay (LANCE Ultra kinase activity assay, PerkinElmer); format: biochemical; settings: 450 μM ATP; for IC50: five concentrations 10000-1 nM; for inhibition at 1 µM: inhibition rate at 1000 nM compound, 60 min, 25° C., read-out: Inhibitory activity(1 μM) MNK1
Method: as §1, §2

Chain of MNK2 (Q9HBH9 whole entry): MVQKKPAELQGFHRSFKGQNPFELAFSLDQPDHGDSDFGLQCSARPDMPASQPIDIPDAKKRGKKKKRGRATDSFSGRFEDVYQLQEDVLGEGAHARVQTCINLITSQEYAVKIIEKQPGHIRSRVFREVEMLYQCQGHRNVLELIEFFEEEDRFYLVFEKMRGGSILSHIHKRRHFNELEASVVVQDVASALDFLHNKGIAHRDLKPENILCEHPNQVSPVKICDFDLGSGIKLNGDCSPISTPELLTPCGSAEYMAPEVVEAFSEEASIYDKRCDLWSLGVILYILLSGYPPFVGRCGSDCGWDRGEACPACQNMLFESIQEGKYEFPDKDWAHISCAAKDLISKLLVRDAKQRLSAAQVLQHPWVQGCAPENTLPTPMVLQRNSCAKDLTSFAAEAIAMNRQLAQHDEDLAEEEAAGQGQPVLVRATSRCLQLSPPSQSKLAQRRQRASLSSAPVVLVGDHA
Chain of MNK1 (Q9BUB5 whole entry): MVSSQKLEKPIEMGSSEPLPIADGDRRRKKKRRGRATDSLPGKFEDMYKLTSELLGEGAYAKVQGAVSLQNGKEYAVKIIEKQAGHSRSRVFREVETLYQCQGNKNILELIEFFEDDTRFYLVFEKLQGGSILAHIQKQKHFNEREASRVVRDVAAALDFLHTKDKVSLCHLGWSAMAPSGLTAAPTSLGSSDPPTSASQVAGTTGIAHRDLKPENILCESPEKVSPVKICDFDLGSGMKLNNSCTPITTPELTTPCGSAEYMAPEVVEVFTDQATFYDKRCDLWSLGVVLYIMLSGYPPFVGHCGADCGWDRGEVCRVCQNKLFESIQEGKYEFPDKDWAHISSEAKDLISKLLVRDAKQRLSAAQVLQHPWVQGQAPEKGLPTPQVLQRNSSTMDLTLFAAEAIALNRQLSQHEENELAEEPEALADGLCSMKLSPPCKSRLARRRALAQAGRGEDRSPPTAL

SMILES | IC50 (MNK2) | inhibition at 1 µM (MNK2) | IC50 (MNK1) | inhibition at 1 µM (MNK1)
CN(C)C1CCN(C(=O)c2ccc(-c3nn4c(-c5ccc(O)cc5)cnc4s3)cc2)CC1 [Compound 14, (4-(dimethylamino)piperidin-1-yl)(4-(5-(4-hydroxyphenyl)imidazo[2,1-b][1,3,4]thiadiazol-2-yl)phenyl)methanone] | < 50 nM | > 75% | < 50 nM | > 75%
COC(=O)c1ccc(-c2cnc3sc(-c4ccc(C(=O)N5CCOCC5)cc4)nn23)cc1 [Compound 4] | – | > 75% | – | > 75%
CN1CCN(C(=O)c2ccc(-c3nn4c(-c5ccc(C(F)(F)F)c(F)c5)cnc4s3)cc2)CC1 [Compound 23, (4-(5-(3-fluoro-4-(trifluoromethyl)phenyl)imidazo[2,1-b][1,3,4]thiadiazol-2-yl)phenyl)(4-methylpiperazin-1-yl)methanone] | 200 to 800 nM | > 75% | 200 to 800 nM | > 75%
N#Cc1ccc(-c2csc3nc(-c4ccc(C(=O)N5CCOCC5)cc4)cn23)cc1 [Compound 43, 4-(6-(4-(morpholine-4-carbonyl)phenyl)imidazo[2,1-b]thiazol-3-yl)benzonitrile] | – | 25 to 50% | – | 25 to 50%
CN1CCN(C(=O)c2ccc(-c3nn4c(-c5ccc(F)cc5F)cnc4s3)cc2)CC1 [Compound 26, (4-(5-(2,4-difluorophenyl)imidazo[2,1-b][1,3,4]thiadiazol-2-yl)phenyl)(4-methylpiperazin-1-yl)methanone] | – | 25 to 50% | – | 25 to 50%
CN(C)C1CCN(C(=O)c2ccc(-c3cn4c(-c5ccc(F)cc5)csc4n3)cc2)CC1 [Compound 53, (4-(dimethylamino)piperidin-1-yl)(4-(3-(4-fluorophenyl)imidazo[2,1-b]thiazol-6-yl)phenyl)methanone] | – | 25 to 50% | – | 25 to 50%

Second part, the compound after the results:

IC50 (MNK2) | inhibition at 1 µM (MNK2) | IC50 (MNK1) | inhibition at 1 µM (MNK1) | SMILES
< 50 nM | > 75% | < 50 nM | > 75% | N#Cc1ccc(-c2cnc3sc(-c4ccc(C(=O)NCCCN5CCOCC5)cc4)nn23)cc1 [Compound 37, 4-(5-(4-cyanophenyl)imidazo[2,1-b][1,3,4]thiadiazol-2-yl)-N-(3-morpholinopropyl)benzamide]
< 50 nM | > 75% | < 50 nM | > 75% | N#Cc1ccc(-c2cnc3sc(-c4ccc(C(=O)NCCCCCO)cc4)nn23)cc1 [Compound 42, 4-(5-(4-cyanophenyl)imidazo[2,1-b][1,3,4]thiadiazol-2-yl)-N-(5-hydroxypentyl)benzamide]
< 50 nM | > 75% | < 50 nM | > 75% | CN(C)CCNC(=O)c1ccc(-c2nn3c(-c4ccc(C#N)cc4)cnc3s2)cc1 [Compound 36, 4-(5-(4-cyanophenyl)imidazo[2,1-b][1,3,4]thiadiazol-2-yl)-N-(2-(dimethylamino)ethyl)benzamide]
< 50 nM | > 75% | 200 to 800 nM | > 75% | O=C(c1ccc(-c2nn3c(-c4ccc(F)cc4)cnc3s2)cc1)N1CCOCC1 [Compound 2, (4-(5-(4-fluorophenyl)imidazo[2,1-b][1,3,4]thiadiazol-2-yl)phenyl)(morpholino)methanone]
< 50 nM | > 75% | < 50 nM | > 75% | N#Cc1ccc(-c2cnc3sc(-c4ccc(C(=O)NCCO)cc4)nn23)cc1 [Compound 40, 4-(5-(4-cyanophenyl)imidazo[2,1-b][1,3,4]thiadiazol-2-yl)-N-(2-hydroxyethyl)benzamide]
< 50 nM | > 75% | < 50 nM | > 75% | N#Cc1ccc(-c2cnc3sc(-c4ccc(C(=O)N5CCOCC5)cc4)nn23)cc1 [Compound 1, 4-(2-(4-(morpholine-4-carbonyl)phenyl)imidazo[2,1-b][1,3,4]thiadiazol-5-yl)benzonitrile]
